From ChEMBL document CHEMBL5149985, “Discovery of cytotoxic natural products from Red Sea sponges: Structure and synthesis” (Eur J Med Chem, 2021)
Where a name gives a salt, the structure may show the parent alone.

Legend:
[1] = test system: MCF7; test: Anticancer activity against human MCF7 cells assessed as inhibition of cell growth incubated for 72 hrs by SRB assay; assay type: functional, cell-based; conditions: MCF7, 72 h
[2] = test system: HepG2; test: Anticancer activity against human HepG2 cells assessed as inhibition of cell growth incubated for 72 hrs by SRB assay; assay type: functional, cell-based; conditions: HepG2, 72 h
[3] = test system: HCT-116; test: Anticancer activity against human HCT-116 cells assessed as inhibition of cell growth incubated for 72 hrs by SRB assay; assay type: functional, cell-based; conditions: HCT-116, 72 h
[4] = test system: MCF7; test: Anticancer activity against human MCF7 cells assessed as inhibition of cell growth incubated for 72 hrs by MTT assay; assay type: functional, cell-based; conditions: MCF7, 72 h
[5] = species on record: Homo sapiens; test: Inhibition of actin (unknown origin) polymerization at 1 uM incubated for 20 mins in presence of ATP by ELISA analysis relative to control
[6] = Inhibition of actin (unknown origin) polymerization incubated for 20 mins in presence of ATP by ELISA analysis; design: species or system Homo sapiens
[7] = Inhibition of actin (unknown origin) polymerization at 100 nM incubated for 20 mins in presence of ATP by ELISA analysis relative to control; conditions: Homo sapiens
[8] = test system: MDA-MB-231; test: Anticancer activity against human MDA-MB-231 cells assessed as inhibition of cell growth incubated for 72 hrs by MTT assay; assay type: functional, cell-based; conditions: MDA-MB-231, 72 h
[9] = test system: P388; test: Anticancer activity against mouse P388 cells assessed as cell growth inhibition; assay type: functional, cell-based
[10] = test system: A549; test: Anticancer activity against human A549 cells assessed as cell growth inhibition; assay type: functional, cell-based
[11] = test system: HT-29; test: Anticancer activity against human HT-29 cells assessed as cell growth inhibition; assay type: functional, cell-based
[12] = test system: HeLa; test: Anticancer activity against human HeLa cells assessed as inhibition of cell growth; assay type: functional, cell-based
[13] = test system: HCT-116; test: cells; conditions: Homo sapiens
Description: Anticancer activity against human HCT-116 cells assessed as inhibition of cell growth by MTT assay

[14] = test system: HepG2; test: cells; conditions: Homo sapiens
Description: Anticancer activity against human HepG2 cells assessed as inhibition of cell growth by MTT assay

[15] = test system: KB 3-1; test: Anticancer activity against human KB 3-1 cells assessed as inhibition in cell growth; assay type: functional, cell-based
[16] = test system: MDA-MB-231; test: Anticancer activity against human MDA-MB-231 cells assessed as cell viability measured after 24 hrs by MTT assay; assay type: functional, cell-based; conditions: MDA-MB-231, 24 h

CC1(C)CCC[C@]2(C)[C@H]3C[C@@H](O)[C@]4(C)[C@H](C=O)C(C=O)=CC[C@H]4[C@]3(C)CC[C@@H]12
IC50 [1]: 3.3 µM
IC50 [2]: 1.7 µM
IC50 [3]: 3.4 µM

C/C1=C/C(=O)O[C@@H]2C[C@@H](CC[C@H](C)/C=C\C=C\CC1)O[C@@](OC(=O)c1ccccc1)([C@@H]1CSC(=O)N1)C2
IC50 [4]: 0.52 µM
inhibition [5]: 67%
IC50 [6]: 0.466 µM
inhibition [7]: 23%
IC50 [8]: 5.05 µM

CO[C@H]1NC(=O)C2=C1[C@H](O)C[C@H]1[C@]3(C)CC[C@H]4C(C)(C)CCC[C@]4(C)[C@H]3C[C@@H](OC(C)=O)[C@]21C
IC50 [1]: 55.4 µM
IC50 [2]: 25.4 µM
IC50 [3]: 26.5 µM

C=C(CCCC(C)(C)O)C(=O)CC[C@@]1(C)CC[C@@H]([C@H](C)C(=O)OC)OO1 [AIKUPIKOXIDE D]
IC50 [9]: ≥ 1 µg/mL
IC50 [10]: ≥ 1 µg/mL
IC50 [11]: ≥ 1 µg/mL

NC(=O)C[C@@]1(O)C=C(Cl)C(=O)C(Br)=C1
IC50 [12]: 0.0178 µM

C#C/C=C\CCCCC#CC#CC#CCCC/C=C\C#CCO [DEHYDROISOPHONOCHALYNOL]
IC50 [9]: 7.3 nM
IC50 [12]: 0.0169 µM

CC(=O)O[C@H]1C[C@H]2[C@@](C)(CC[C@H]3C(C)(C)CCC[C@]23C)[C@@H]2CC=C(C(C)=O)C[C@]21C
IC50 [13]: 0.0018 µM
IC50 [14]: 0.0044 µM

COc1cccc2c1C(=O)c1c(O)c3c(c(O)c1C2=O)C[C@@](O)(C(=O)CO)C[C@@H]3O[C@H]1C[C@H](N)[C@H](O)[C@H](C)O1 [DOXORUBICIN HYDROCHLORIDE]
IC50 [9]: 0.0114 nM
IC50 [13]: 0.0012 µM
IC50 [14]: 0.001 µM

CO[C@]1([C@@H]2CSC(=O)N2CCCO)C[C@H]2C[C@@H](CC[C@H](C)/C=C\C=C\CC/C(C)=C\C(=O)O2)O1
inhibition [5]: 21%
IC50 [6]: 8.55 µM
inhibition [7]: 0%
IC50 [8]: > 50 µM

CC1=C(CC[C@H]2[C@]3(C)CC[C@H](O)C(C)(C)O[C@H]3CC[C@@]2(C)O)[C@](C)(C/C=C/C(C)(C)OO)[C@H](O)CC1
IC50 [15]: 0.0039 µM

C[C@H]1N[C@@H](C(=O)O)Cc2c1[nH]c1ccc(O)cc21 [HYRTIOERECTINE B]
IC50 [12]: 0.02 µM

CC1=C(CC[C@H]2[C@]3(C)CC[C@H](O)C(C)(C)O[C@H]3CC[C@]2(C)O)[C@@H]2[C@H](CC1=O)[C@@](C)(O)CCC2(C)C [SIPHOLENOL K]
IC50 [15]: 0.0071 µM

CC(=O)O[C@@H]1C[C@@H]2[C@@]3(C)CCCC(C)(C)[C@@H]3CC[C@@]2(C)[C@@H]2CCC3=C(C(=O)OC3)[C@@]12C
IC50 [1]: 30.7 µM
IC50 [2]: 17.3 µM
IC50 [3]: 14.4 µM

CO[C@H]1C[C@H]2[C@]3(C)CC[C@H]4C(C)(C)CCC[C@]4(C)[C@H]3C[C@@H](OC(C)=O)[C@]2(C)C2=C1[C@@H](O)OC2=O
IC50 [1]: 40.3 µM
IC50 [2]: 42.5 µM
IC50 [3]: 22.5 µM

CCN1C(=O)SC[C@H]1[C@@]1(OC)C[C@H]2C[C@@H](CC[C@H](C)/C=C\C=C\CC/C(C)=C\C(=O)O2)O1
inhibition [5]: 18%
IC50 [6]: > 10 µM
inhibition [7]: 0%
IC50 [8]: > 50 µM

O=C(O)[C@H](O)Cc1c[nH]c2ccc(O)cc12 [HYRTIOERECTINE C]
IC50 [12]: 0.02 µM

COC1=C(Br)[C@H]2OC(=O)C[C@]2(O)C=C1Br
IC50 [16]: 18 µM

CC1(C)CCC[C@]2(C)[C@H]3C[C@@H](O)[C@]4(C)[C@@H](C=O)C(C=O)=CC[C@H]4[C@]3(C)CC[C@@H]12
IC50 [1]: 36 µM
IC50 [2]: 23.4 µM
IC50 [3]: 27.1 µM

CC1=CC[C@H]2[C@H](CC[C@]2(C)O)C(C)(C)[C@@H]1CC[C@H]1[C@]2(C)CC[C@@H](O)O[C@H]2CC[C@@]1(C)O
IC50 [15]: 0.0056 µM

CO[C@]1([C@@H]2CSC(=O)N2Cc2ccccc2)C[C@H]2C[C@@H](CC[C@H](C)/C=C\C=C\CC/C(C)=C\C(=O)O2)O1
IC50 [4]: 0.78 µM
inhibition [5]: 67%
IC50 [6]: 0.333 µM
inhibition [7]: 33%
IC50 [8]: 6.82 µM

CO[C@]1([C@@H]2CSC(=O)N2C(=O)c2ccccc2)C[C@H]2C[C@@H](CC[C@H](C)/C=C\C=C\CC/C(C)=C\C(=O)O2)O1
IC50 [4]: 0.55 µM
inhibition [5]: 53%
IC50 [6]: 0.834 µM
inhibition [7]: 17%
IC50 [8]: 4.48 µM

C[C@@H]1CC[C@H]2[C@@H](/C1=C/C[C@H]1[C@]3(C)CCC(=O)C(C)(C)O[C@H]3CC[C@]1(C)O)C(C)(C)CC[C@]2(C)O
IC50 [15]: 0.0047 µM

CCN1C(=O)SC[C@H]1[C@@]1(O)C[C@H]2C[C@@H](CC[C@H](C)/C=C\C=C\CC/C(C)=C\C(=O)O2)O1
IC50 [4]: 0.95 µM
inhibition [5]: 70%
IC50 [6]: 0.283 µM
inhibition [7]: 31%
IC50 [8]: 7.19 µM

C=C1CCCC(C)(C)C1(O)CCC[C@@]1(C)CC[C@@H]([C@H](C)C(=O)OC)OO1 (stereo partly drawn)
IC50 [9]: ≥ 1 µg/mL
IC50 [10]: ≥ 1 µg/mL
IC50 [11]: ≥ 1 µg/mL

CO[C@]1([C@@H]2CSC(=O)N2)C[C@H]2C[C@@H](CC[C@H](C)/C=C\C=C\CC/C(C)=C\C(=O)O2)O1
inhibition [5]: 21%
IC50 [6]: 9.23 µM
inhibition [7]: 6%
IC50 [8]: 23.4 µM

CC(C)=CCC[C@@]1(C)C(CC[C@H]2[C@]3(C)CC[C@H](O)C(C)(C)O[C@H]3CC[C@@]2(C)O)=C(C)CC[C@H]1O [SIPHONELLINOL D]
IC50 [15]: 0.0042 µM

C=C(OO)C(C)CC[C@@]1(C)C(CC[C@H]2[C@]3(C)CC[C@H](O)C(C)(C)O[C@H]3CC[C@@]2(C)O)=C(C)CC[C@H]1O (stereo partly drawn)
IC50 [15]: 0.0046 µM

CO[C@]1([C@@H]2CSC(=O)N2C2CCCC2)C[C@H]2C[C@@H](CC[C@H](C)/C=C\C=C\CC/C(C)=C\C(=O)O2)O1
IC50 [4]: 5.3 µM
inhibition [5]: 49%
IC50 [6]: 1.05 µM
inhibition [7]: 20%
IC50 [8]: 5.07 µM

C/C1=C/C(=O)O[C@@H]2C[C@@H](CC[C@H](C)/C=C\C=C\CC1)O[C@@](O)([C@@H]1CSC(=O)N1Cc1ccccc1)C2
IC50 [4]: 0.63 µM
inhibition [5]: 64%
IC50 [6]: 0.445 µM
inhibition [7]: 24%
IC50 [8]: 2.72 µM

CCSc1ccc(/C=C2\NC(=O)NC2=O)cc1
IC50 [16]: 43.4 µM

NC(=O)Cc1cc(Br)c(O)c(Br)c1O
IC50 [9]: 6.7 nM

CC(=O)O[C@@H]1C[C@@H]2[C@@]3(C)CCCC(C)(C)[C@@H]3CC[C@@]2(C)[C@@H]2CC=C3C(=O)OCC3[C@@]12C (stereo partly drawn)
IC50 [1]: 20.9 µM
IC50 [2]: 15.5 µM
IC50 [3]: 15.4 µM

CC(=O)O[C@H]1C[C@H]2[C@]3(C)CC[C@H]4C(C)(C)CCC[C@]4(C)[C@H]3C[C@@H](O)[C@]2(C)C2=C1C(O)OC2=O (stereo partly drawn)
IC50 [1]: 12.7 µM
IC50 [2]: 9.6 µM
IC50 [3]: 3.5 µM

CC[C@@]1(C)CCC[C@]2(C)[C@H]3C[C@H](OC(C)=O)[C@]4(C)CC(C(C)=O)=CC[C@H]4[C@]3(C)CC[C@@H]12
IC50 [14]: 0.0042 µM

O=C(O)C(=O)c1c(-c2c[nH]c3cc(O)ccc23)ncc2[nH]c3ccc(O)cc3c12
IC50 [12]: 0.026 µM

C[C@@H]1C(=O)C[C@H]2[C@@H](/C1=C/C[C@H]1[C@]3(C)CC[C@H](O)C(C)(C)O[C@H]3CC[C@]1(C)O)C(C)(C)CC[C@]2(C)O [SIPHOLENOL J]
IC50 [15]: 0.0047 µM

COc1ccc(CC(=O)N2C(=O)SC[C@H]2[C@@]2(OC)C[C@H]3C[C@@H](CC[C@H](C)/C=C\C=C\CC/C(C)=C\C(=O)O3)O2)cc1
inhibition [5]: 13%
IC50 [6]: > 10 µM
inhibition [7]: 0%
IC50 [8]: 26.2 µM

CC(=O)CCCC(C)(C)C(=O)CC/C(C)=C/CC[C@@]1(C)CC[C@H]([C@H](C)C(=O)O)OO1 [AIKUPIKOXIDE A]
IC50 [9]: ≥ 1 µg/mL
IC50 [10]: ≥ 1 µg/mL
IC50 [11]: ≥ 1 µg/mL

CO[C@]1([C@@H]2CSC(=O)N2C)C[C@H]2C[C@@H](CC[C@H](C)/C=C\C=C\CC/C(C)=C\C(=O)O2)O1
inhibition [5]: 19%
IC50 [6]: > 10 µM
inhibition [7]: 11%
IC50 [8]: 19.9 µM

CC(=O)O[C@@H]1C[C@@H]2[C@@]3(C)CCCC(C)(C)[C@@H]3CC[C@@]2(C)[C@@H]2C[C@H](O)C3=C([C@H](O)OC3=O)[C@@]12C
IC50 [1]: 32.6 µM
IC50 [2]: 21.8 µM
IC50 [3]: 57.5 µM

CC1=C(CC[C@H]2[C@]3(C)CC[C@H](O)C(C)(C)O[C@H]3CC[C@]2(C)O)[C@@H]2[C@H](CC1OO)[C@@](C)(O)CCC2(C)C (stereo partly drawn)
IC50 [15]: 0.0047 µM

C#C/C=C\CCCCCCC#CC#CCCC/C=C\C#CCO [CALLYSPONGENOL B]
IC50 [9]: 32.6 nM
IC50 [12]: 0.0326 µM

C/C1=C/C(=O)O[C@@H]2C[C@@H](CC[C@H](C)/C=C\C=C\CC1)O[C@@](O)([C@@H]1CSC(=O)N1)C2 [LATRUNCULIN A]
IC50 [4]: 0.48 µM
inhibition [5]: 70%
IC50 [6]: 0.284 µM
inhibition [7]: 30%
IC50 [8]: 4.19 µM

C#C/C=C\CCCC/C=C\C#CC#CCCC/C=C\C#CCO [CALLYSPONGENOL C]
IC50 [9]: 7.2 nM
IC50 [12]: 0.0128 µM

CC(=O)O[C@H]1C[C@H]2[C@]3(C)CC[C@H]4C(C)(C)CCC[C@]4(C)[C@H]3C[C@@H](O)[C@]2(C)C2=C1COC2=O [SESTERSTATIN 7]
IC50 [1]: 24 µM
IC50 [2]: 19.2 µM
IC50 [3]: 26.1 µM
